From publication PMC11933327, “Asymmetric activation of dimeric ATM/Tel1 kinase” (Cell Discovery, 2025)

Columns and labels:
human ATM = settings: ref [5] Howes, A. C., Perisic, O. & Williams, R. L. Sci. Adv. 9, eadi8291 (2023); cited from earlier work
From the text: Based on a radiolabeled ATP-based kinase assay, which is the “gold standard” for the quantification of protein kinase activity, we managed to achieve a 30-fold increase in ATM/Tel1 activity (Fig. 1a; Supplementary Fig. S3). This level of activati ...

ATM/Tel1 = experiment: Endogenous activation of ATM/Tel1 in cultured yeast cells; assay type: cell-based, Schizosaccharomyces pombe; settings: 0.05% MMS added at OD600 ≈ 4, cells collected 60 min later
Protocol: (§1) Purification of Yeast ATM/Tel1
S. pombe stain CC5060 (h–leu1-32 ura4- D18 kanMX6:nmt1:TAP-tel1)[1] was grown in YPD medium to the stationary phase. 0.05% MMS(MACKLIN)was added at OD600 ≈ 4 and c ells were collected 60 min later. About 100 g cells were harvested, washed, and resuspended in extraction buffer (50 mM HEPES [pH 7.6], 300 mM ammonium sulfate, 0.5 mM EDTA, 5 mM β-ME, 10% (v/v) glycerol, 0.01% (v/v) NP-40 and protease inhibitors), and a whole-cell extraction was prepared as previously described. This whole -cell extract was selectively precipitated in 30-55% ammonium sulfate and resuspended using binding buffer (50 mM HEPES [pH 7.6], 1 mM EDTA, 10 mM ZnCl2, 5 mM β- ME, and protease inhibitors). […] The ATM/Tel1 elution was flash- frozen in liquid nitrogen, and analyzed by SDS-PAGE and EM examination.
(§2) Expression and Purification of full-length CHK2, MRN (Mre11, Rad50-core, Nbs1) The codon-optimized gene fragments for human full- length CHK2, yeast Mre11, Rad50-core (lacking the coiled-coil motif) were cloned into the pET22b vector with a C-terminal 6× His tag and Nbs1 were cloned into the pET22b vector with a C-terminal 6× His tag and a GST tag, and transformed into E. coli BL21(DE3). […] The eluted CHK2 and MRN proteins were flash-frozen in liquid nitrogen and analyzed by SDS-PAGE and EM. […]

active ATM/Tel1 = target: T1, active ATM/Tel1 (Schizosaccharomyces pombe, UniProt O74630); experiment: Surface plasmon resonance, CHK2 immobilized, active ATM/Tel1; assay type: binding; settings: 20 °C, experiment independently repeated three times
T1 construct: TAP (N, cleaved yes); made in house; host or cells: Schizosaccharomyces pombe strain CC5060 (TAP-tel1 under the nmt1 promoter), treated with 0.05% MMS
Protocol: as §1
(§3) S. pombe stain CC5060 (h–leu1-32 ura4- D18 kanMX6:nmt1:TAP-tel1)[1] was grown in YPD medium to the stationary phase. 0.05% MMS(MACKLIN)was added at OD600 ≈ 4 and c ells were collected 60 min later. About 100 g cells were harvested, washed, and resuspended in extraction buffer (50 mM HEPES [pH 7.6], 300 mM ammonium sulfate, 0.5 mM EDTA, 5 mM β-ME, 10% (v/v) glycerol, 0.01% (v/v) NP-40 and protease inhibitors), and a whole-cell extraction was prepared as previously described. […] The ATM/Tel1 elution was flash- frozen in liquid nitrogen, and analyzed by SDS-PAGE and EM examination.
as §2
(§4) to SDS- PAGE and analyzed by Western blot (WB) using pan- acetylated -Lysine (Rabbit monoclonal, Cat# 9441S, Cell Signaling Technology). and phospho-ATM/ATR substrate (pSQ/pTQ motif, Rabbit monoclonal, Cat# 6966, Cell Signaling Technology) antibodies. […]

basal ATM/Tel1 = target: T2, basal ATM/Tel1 (Schizosaccharomyces pombe, UniProt O74630); experiment: Surface plasmon resonance, CHK2 immobilized, basal ATM/Tel1; assay type: binding; settings: 20 °C, experiment independently repeated three times
T2 construct: we endogenously purified basal; TAP (N, cleaved yes); made in house; host or cells: Schizosaccharomyces pombe strain CC5060 (TAP-tel1 under the nmt1 promoter)
Protocol: as §1, §3, §2, §4

active ATM/Tel1 dimer = experiment: Cryo-EM structure of active ATM/Tel1 with substrate peptide; assay type: binding, Schizosaccharomyces pombe; settings: cryo-EM Structure 2, 3.6 Å; active ATM/Tel1 : 329 bp DNA : CHK2 peptide 1:20:200 with AMP-PNP, on ice 1 h
Protocol: The affinity chromatography sample of ATM/Tel1 was diluted to final concentrations of 0.05 mg/ml (50 mM HEPES [pH 7.6], 0.01% (v/v) NP- 40, 1 mM EDTA, 10 mM ZnCl 2, 5 mM β- ME, and protease inhibitors). Negative staining was used to evaluate the protein quality. In brief, 3 µl of freshly purified ATM/Tel1 was applied onto copper grids supported by a thin layer of glow - discharged carbon film (Zhongjingkeyi Technology Co., Ltd). After adsorption for 30 s, uranyl acetate (2% w/v) was used for negative staining at room temperature. The negatively stained grids were examined using FEI Talos L120C operated at 120 KeV. […]
The grids were imaged in a Titan Krios cryo-electron microscope (Thermo Fisher Scientific) operated at 300 keV at a magnification of 81,000 × (corresponding to a calibrated sampling of 1.07 Å per pixel). Movies were recorded by EPU with a Gatan K3 Summit direct electron detector, where each movie was composed of 32 individual frames with an exposure time of 3.8 s and a dose rate of 50 electrons per second per Å2. […]
Beam-induced sample motions were corrected using MotionCorr2[3] software, and contrast transfer function (CTF) parameters were estimated using CTFFIND4[4] software. […] All reported resolutions were calculated from gold standard refinement procedures with the FSC = 0.143 criterion implemented in cryoSPARC[5]. […]

T1 sequence (O74630 whole entry): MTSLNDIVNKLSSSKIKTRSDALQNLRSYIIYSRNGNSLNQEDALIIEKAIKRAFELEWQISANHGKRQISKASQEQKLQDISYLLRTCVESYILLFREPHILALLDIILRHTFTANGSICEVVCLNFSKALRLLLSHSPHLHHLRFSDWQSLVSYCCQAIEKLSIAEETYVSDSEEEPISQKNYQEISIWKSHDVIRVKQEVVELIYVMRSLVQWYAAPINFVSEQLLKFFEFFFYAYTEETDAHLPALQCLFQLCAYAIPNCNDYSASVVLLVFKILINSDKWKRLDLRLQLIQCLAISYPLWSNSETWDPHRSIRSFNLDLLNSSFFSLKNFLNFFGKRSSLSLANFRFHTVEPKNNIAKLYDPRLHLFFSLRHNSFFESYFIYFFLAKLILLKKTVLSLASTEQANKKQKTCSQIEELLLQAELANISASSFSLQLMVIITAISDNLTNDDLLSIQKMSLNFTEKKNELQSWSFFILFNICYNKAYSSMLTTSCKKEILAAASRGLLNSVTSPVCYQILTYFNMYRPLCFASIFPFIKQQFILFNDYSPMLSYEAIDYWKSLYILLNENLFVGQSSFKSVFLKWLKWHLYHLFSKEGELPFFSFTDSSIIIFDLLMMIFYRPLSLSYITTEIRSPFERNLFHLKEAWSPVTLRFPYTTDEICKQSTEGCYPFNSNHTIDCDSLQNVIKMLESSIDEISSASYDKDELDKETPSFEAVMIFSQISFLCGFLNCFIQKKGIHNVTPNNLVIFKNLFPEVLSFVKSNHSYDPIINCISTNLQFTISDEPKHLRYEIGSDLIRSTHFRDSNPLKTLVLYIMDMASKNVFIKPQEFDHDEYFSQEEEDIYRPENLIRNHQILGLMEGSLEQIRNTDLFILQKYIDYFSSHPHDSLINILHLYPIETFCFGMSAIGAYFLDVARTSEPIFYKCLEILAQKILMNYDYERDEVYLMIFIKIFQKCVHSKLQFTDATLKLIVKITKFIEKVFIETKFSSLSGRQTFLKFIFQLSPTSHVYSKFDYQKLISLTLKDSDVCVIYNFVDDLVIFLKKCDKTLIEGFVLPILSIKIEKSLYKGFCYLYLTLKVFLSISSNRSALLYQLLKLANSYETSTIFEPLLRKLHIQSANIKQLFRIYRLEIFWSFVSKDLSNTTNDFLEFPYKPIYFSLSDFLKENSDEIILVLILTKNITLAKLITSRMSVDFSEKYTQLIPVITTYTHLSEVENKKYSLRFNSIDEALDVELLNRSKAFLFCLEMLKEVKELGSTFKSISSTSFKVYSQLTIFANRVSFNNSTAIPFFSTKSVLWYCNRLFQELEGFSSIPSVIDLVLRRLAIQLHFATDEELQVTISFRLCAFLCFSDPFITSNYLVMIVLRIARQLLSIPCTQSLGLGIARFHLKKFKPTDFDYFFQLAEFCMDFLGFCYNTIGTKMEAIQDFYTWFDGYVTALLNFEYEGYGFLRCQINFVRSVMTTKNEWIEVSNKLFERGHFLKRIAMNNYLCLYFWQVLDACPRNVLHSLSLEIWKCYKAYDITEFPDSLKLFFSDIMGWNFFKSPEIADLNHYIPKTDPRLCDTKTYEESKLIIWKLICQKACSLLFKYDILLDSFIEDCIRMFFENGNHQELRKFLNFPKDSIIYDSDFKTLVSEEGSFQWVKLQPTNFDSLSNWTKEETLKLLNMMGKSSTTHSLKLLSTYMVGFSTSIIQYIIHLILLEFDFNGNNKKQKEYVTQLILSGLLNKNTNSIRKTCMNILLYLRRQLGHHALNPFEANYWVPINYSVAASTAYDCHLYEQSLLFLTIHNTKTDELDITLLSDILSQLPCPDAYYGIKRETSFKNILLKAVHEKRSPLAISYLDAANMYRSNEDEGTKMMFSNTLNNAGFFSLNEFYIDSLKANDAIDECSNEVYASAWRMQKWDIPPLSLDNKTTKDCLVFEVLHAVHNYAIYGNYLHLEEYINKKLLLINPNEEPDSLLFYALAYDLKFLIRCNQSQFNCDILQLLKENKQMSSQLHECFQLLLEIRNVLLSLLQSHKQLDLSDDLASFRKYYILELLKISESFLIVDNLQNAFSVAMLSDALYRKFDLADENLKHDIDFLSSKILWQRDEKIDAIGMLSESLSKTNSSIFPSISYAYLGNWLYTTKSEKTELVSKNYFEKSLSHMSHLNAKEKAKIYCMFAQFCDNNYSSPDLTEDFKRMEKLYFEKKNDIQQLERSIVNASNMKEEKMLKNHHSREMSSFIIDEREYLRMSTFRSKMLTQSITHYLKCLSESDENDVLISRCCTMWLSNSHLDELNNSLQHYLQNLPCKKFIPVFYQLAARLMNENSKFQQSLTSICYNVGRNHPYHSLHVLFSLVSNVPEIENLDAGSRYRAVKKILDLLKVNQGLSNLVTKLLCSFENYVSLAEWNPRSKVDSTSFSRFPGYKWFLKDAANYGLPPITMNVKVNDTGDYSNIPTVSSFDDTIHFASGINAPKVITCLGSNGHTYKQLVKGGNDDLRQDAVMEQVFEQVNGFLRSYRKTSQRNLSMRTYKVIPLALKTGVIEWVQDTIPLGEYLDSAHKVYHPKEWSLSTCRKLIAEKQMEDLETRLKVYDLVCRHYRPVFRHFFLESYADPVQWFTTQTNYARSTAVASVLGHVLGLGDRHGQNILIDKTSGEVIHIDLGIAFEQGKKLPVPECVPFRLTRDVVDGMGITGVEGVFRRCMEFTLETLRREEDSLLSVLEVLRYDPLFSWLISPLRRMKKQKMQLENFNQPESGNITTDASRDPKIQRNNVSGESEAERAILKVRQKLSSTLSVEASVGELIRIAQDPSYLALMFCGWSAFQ
T2 sequence (O74630 whole entry): as above

OO [H2O2]
level of activation of human ATM in vitro compared with the 30-fold activation of ATM/Tel1 (human ATM): comparable

COS(C)(=O)=O [methylmethane sulfonate]
activation of cellular ATM/Tel1 (in words) (ATM/Tel1): endogenously activated the cellular ATM/Tel1

LETVSTQELYSI [CHK2 peptide, 12-residue human CHK2 substrate peptide 63-74, custom-synthesized by Sangon, with an N-terminal NH2 and C-terminal COOH]
affinity for active ATM/Tel1 relative to full-length CHK2 (active ATM/Tel1; SPR (Supplementary Fig. S7)): comparable to that of the full-length CHK2
binding affinity for active ATM/Tel1 (in words) (active ATM/Tel1; SPR (Supplementary Fig. S7a)): increased affinity in the active state
reduction of affinity for basal ATM/Tel1 compared to the active state (basal ATM/Tel1; SPR (Supplementary Fig. S7)): over 120 fold
binding affinity for basal ATM/Tel1 (in words) (basal ATM/Tel1; SPR (Supplementary Fig. S7b)): significantly lower affinity
monomers of the active dimer that bind the substrate peptide (active ATM/Tel1 dimer): only Mono1, but not Mono2, can bind to the CHK2 peptide
